Laboratory results as given in patent US8227604B2, “Hybrid 2-aminotetralin and aryl-substituted piperazine compounds and their use in altering CNS activity” (Wayne State University, priority 2001, dated 2012).

Assays:
[1] = target: T1, D3 receptor (Homo sapiens, UniProt P35462); experiment: Binding affinity at cloned human D3 receptor, [3H]YM-09151-2 (CHOp-D3 cells); set-up: expressed in transfected cells; host or cells: CHOp-D3 cells; details: for Ki: cloned human D3; for D2/D3: ratio of Ki D2 to Ki D3, [3H]YM-09151-2 protocol of Table 4
Procedure: (§1) CHOp-cells (human receptors) are grown to confluence in a minimum essential medium (α MEM) containing 10% fetal calf serum, 0.05% pen-strep, and 600 μg/ml of G418. The cells are scraped from the 100 by 20 mm plates and centrifuged at 500. g for 5 min. The pellet is homogenized by polytron in 50 mM Tris-HCl, pH 7.7, and centrifuged at 27,000·G for 12 min. The pellet is resuspended in 50 mM Tris, D2 at 5 mg protein/ml, D3 at 1 mg protein/ml, and stored at −70° C. in 1-ml aliquots.
(§2) On the day of the experiment, CHOp-D2 or CHOp-D3 cells are thawed, resuspended in 50 mM Tris, and centrifuged at 27,000·G for 12 min. The pellet is then resuspended at 5 mg protein/80 ml (D2) and 1 mg protein/80 ml (D3) in 50 mM Tris containing 120 mM of NaCl, 5 mM of KCl, 1.5 mM of CaCl2, 4 mM of MgCl2, and 1 mM of EDTA, pH 7.4. […] Nonspecific binding is determined with 1 mM of chlorpromazine. The plates are incubated at 25° C. for 60 min before filtration and counted as usual. The filters are soaked in 0.1% PEI before filtering.

[2] = target: T2, D4 receptor (Homo sapiens, UniProt P21917); experiment: Agonist potency by [3H]thymidine incorporation (mitogenesis), D4; assay type: cell-based; set-up: expressed in transfected cells; details: for EC50 / D4 % Maxm Stim: [3H]thymidine incorporation; for D4 % Maxm Stim: >80% full agonist
T2 sequence (P21917 1-419): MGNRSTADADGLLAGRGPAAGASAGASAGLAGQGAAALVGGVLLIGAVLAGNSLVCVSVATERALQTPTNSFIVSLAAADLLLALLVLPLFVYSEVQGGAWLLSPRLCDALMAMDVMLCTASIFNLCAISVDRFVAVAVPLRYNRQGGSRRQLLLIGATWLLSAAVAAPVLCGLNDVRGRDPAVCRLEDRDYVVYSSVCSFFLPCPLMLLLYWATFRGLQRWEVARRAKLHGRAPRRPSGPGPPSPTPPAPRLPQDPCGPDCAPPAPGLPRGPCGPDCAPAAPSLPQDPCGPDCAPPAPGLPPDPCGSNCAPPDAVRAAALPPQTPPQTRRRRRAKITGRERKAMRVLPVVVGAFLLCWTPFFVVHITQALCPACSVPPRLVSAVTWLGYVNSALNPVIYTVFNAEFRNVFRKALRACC
Procedure: Potential as domaminergenic agonists was assayed by ^3H-thymidine incorporation by standard techniques.
The mitogenesis study results presented in Table 7 assay the ability of these ligands to act as agonists or antagonists. The EC50 values thus indicate intrinsic activities or functional activities of these compounds. The value of % maximum stimulation indicates whether a compound is a partial agonist or full agonist. Generally, a value greater than 80% is considered as a full agonist and anything less than 80% is considered as a partial agonist. A compound will be considered antagonist if it produces a negative result (no [3H]thymidine incorporation) in the assay. All the compounds reported in Table 7 are either full agonists or partial agonists.

[3] = target: T3, D2L receptor (Homo sapiens, UniProt P14416); experiment: Inhibition constants for binding to cloned D2L receptor expressed in HEK cells, [3H]spiperone
T3 construct: expressed in transfected cells; host or cells: HEK cells
Procedure: (§3) Inhibition constants for binding to cloned D2L and D3 receptors expressed in HEK cells by displacing [^3H] spiperone were measured for several compounds.

[4] = target: T4, D2 receptor (Homo sapiens, UniProt P14416); experiment: Binding affinity at cloned human D2 receptor, [3H]YM-09151-2 (CHOp-D2 cells)
T4 construct: expressed in transfected cells
Procedure: as §1, §2

[5] = target: T1, D3 receptor; experiment: Inhibition constants for binding to cloned D3 receptor expressed in HEK cells, [3H]spiperone; details: D3 expressed in HEK cells
Procedure: as §3

T3 sequence (P14416 whole entry): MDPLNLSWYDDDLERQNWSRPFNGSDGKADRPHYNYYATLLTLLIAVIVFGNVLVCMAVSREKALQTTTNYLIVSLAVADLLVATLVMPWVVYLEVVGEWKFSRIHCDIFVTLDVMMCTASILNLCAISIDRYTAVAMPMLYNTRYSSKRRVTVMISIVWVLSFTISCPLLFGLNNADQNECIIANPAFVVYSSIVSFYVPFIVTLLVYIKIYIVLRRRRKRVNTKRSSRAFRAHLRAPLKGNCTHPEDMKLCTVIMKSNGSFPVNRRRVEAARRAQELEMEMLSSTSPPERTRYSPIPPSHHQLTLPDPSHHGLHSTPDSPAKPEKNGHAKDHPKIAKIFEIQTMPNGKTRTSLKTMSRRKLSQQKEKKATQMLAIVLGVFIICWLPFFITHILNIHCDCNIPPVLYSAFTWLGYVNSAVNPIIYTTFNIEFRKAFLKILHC
T4 sequence (P14416 whole entry): as above
T1 sequence (P35462 whole entry): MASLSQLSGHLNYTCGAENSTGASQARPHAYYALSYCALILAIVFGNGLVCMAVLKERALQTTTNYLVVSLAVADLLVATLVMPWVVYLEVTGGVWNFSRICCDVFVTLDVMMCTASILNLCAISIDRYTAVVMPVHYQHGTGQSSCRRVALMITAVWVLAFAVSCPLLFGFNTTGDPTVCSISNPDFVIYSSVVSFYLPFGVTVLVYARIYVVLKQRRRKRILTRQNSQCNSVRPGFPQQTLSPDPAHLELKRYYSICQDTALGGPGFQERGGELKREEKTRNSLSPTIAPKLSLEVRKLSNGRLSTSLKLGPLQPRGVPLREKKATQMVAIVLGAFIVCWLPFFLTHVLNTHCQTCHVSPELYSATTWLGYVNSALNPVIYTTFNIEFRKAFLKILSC

Row | Ki [1] [nM] | D2/D3 [1] | EC50 [2] [nM] | Ki [3] [nM] | Ki [4] [nM] | D4 % Maxm Stim [2] [%] | melting point [°C] | Ki [5] [nM] | agonist character at the D4 receptor ([2]; functional assay) | Structure (SMILES)
1 | 75.8 ± 6.29 | 1.18 | 54.8 ± 18.6 | 622 ± 102 | 89.8 ± 32.5 |  |  |  |  | N#CCCCN(CCCCN1CCN(c2ccccc2)CC1)C1CCc2ccc(O)cc2C1 (centres unmarked) [Compound 8, 7-Hydroxy-2-[N-butyonitrile-(N-(4-phenylpiperazin-1-yl)-butyl)amino]tetralin]
2 | 313 ± 6.47 | 0.38 | 32.2 ± 2.51 | 782 ± 42 | 119 ± 1.45 | 51.08 ± 1.72 | 70 to 71 |  |  | O=C(NCCCCN(CCCCN1CCN(c2ccccc2)CC1)C1CCc2ccc(O)cc2C1)c1ccccc1 (centres unmarked) [Compound 10a, 7-Hydroxyl-2-[N-(4-benzoylaminobutyl)-(N-(4-phenylpiperazin-1-yl)-butyl)amino]tetralin]
3 | 84.6 ± 1.55 | 1.30 | 26.7 ± 10.6 | 354 ± 2 | 111 ± 32.2 | 71.36 ± 10.17 |  |  |  | O=C(NCCN(CCCCN1CCN(c2ccccc2)CC1)C1CCc2ccc(O)cc2C1)c1ccccc1 (centres unmarked) [Compound 10b, 7-Hydroxy-2-[N-(2-benzoylamino)ethyl-(N-(4-phenylpiperazin-1-yl)-butyl)amino]tetralin]
4 | 3.47 ± 0.08 | 1 | 22.5 ± 11 | 114 ± 8 | 3.37 ± 0.78 | 102.81 ± 20.21 |  | 3.79 ± 0.4 | full agonists | CCCN(CCCCN1CCN(c2ccccc2)CC1)C1CCc2ccc(O)cc2C1 (centres unmarked) [Compound 15b, 7-Hydroxyl-2-[N-propyl-(N-(4-phenylpiperazin-1-yl)-butyl)amino]tetralin]
